According to patent publication US20150105252A1, “SUBSTITUTED PYRAZOLES AS HERBICIDES” (E I DU PONT DE NEMOURS AND COMPANY, priority 2013, published 2015):

Tests used:
yellow nutsedge = assay: Test F preemergence; type: in vivo, Cyperus esculentus
Text: (§1) Seeds of plant species selected from corn (Zea mays), soybean (Glycine max), velvetleaf (Abutilon theophrasti), lambsquarters (Chenopodium album), wild poinsettia (Euphorbia heterophylla), pigweed, palmer (palmer pigweed, Amaranthus palmeri), common waterhemp (Amaranthus rudis), surinam grass (Brachiaria decumbens), large crabgrass (Digitaria sanguinalis), crabgrass, Brazil (Brazilian crabgrass, Digitaria horizontalis), fall panicum (Panicum dichotomiflorum), giant foxtail (Setaria faberii), green foxtail (Setaria viridis), goosegrass (Eleusine indica), johnsongrass (Sorghum halepense), common ragweed (Ambrosia elation), barnyardgrass (Echinochloa crus-galli), southern sandbur (Cenchrus echinatus), arrowleaf sida (Sida rhombifolia), Italian ryegrass (Lolium multiflorum), dayflower, VA (Virginia (VA) dayflower, Commelina virginica), field bindweed (Convolvulus arvensis), cocklebur (common cocklebur, Xanthium strumarium), morningglory (Ipomoea coccinea), nightshade (eastern black nightshade, Solanum ptycanthum), kochia (Kochia scoparia), yellow nutsedge (Cyperus esculentus), and hairy beggarticks (Bidens pilosa), were planted into a silt loam soil and treated preemergence with test chemicals formulated in a non-phytotoxic solvent mixture which included a surfactant.
(§2) At the same time, plants from these crop and weed species and also horseweed (Canada horseweed, Conyza canadensis), smartweed (ladysthumb smartweed, Polygonum persicaria), waterhemp_RES1, (ALS & Triazine resistant common waterhemp, Amaranthus rudis), and waterhemp_RES2, (ALS & HPPD resistant common waterhemp, Amaranthus rudis) were treated with postemergence applications of test chemicals formulated in the same manner. Plants ranged in height from 2 to 18 cm for postemergence treatments (1- to 4-leaf stage). Treated plants and controls were maintained in a greenhouse for 14 to 21 days, after which time all species were compared to controls and visually evaluated. Plant response ratings, summarized in Table F, are based on a scale of 0 to 100 where 0 is no effect and 100 is complete control. A dash (-) response means no test result.

wild poinsettia = assay: Test F preemergence; type: in vivo, Euphorbia heterophylla
Text: as §1, §2

common ragweed = assay: Test F preemergence; type: in vivo, Ambrosia elation
Text: as §1, §2

blackgrass = assay: Test A postemergence; type: in vivo, Alopecurus myosuroides
Summary of the method: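 Pre- and postemergence greenhouse test; loam+sand; cpd in non-phytotox. solvent/surfactant; post at 1–2 leaf, 2–10 cm; visual score ~10 d, 0 = none, 100 = complete control.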

bromegrass, downy = assay: Test C postemergence; type: in vivo, Bromus tectorum; details: for Bromegrass, Downy plant response rating: scale 0 to 100
Text: (§3) Seeds of plant species selected from blackgrass (Alopecurus myosuroides), ryegrass, Italian (Italian ryegrass, Lolium multiflorum), wheat (winter wheat, Triticum aestivum), galium (catchweed bedstraw, Galium aparine), corn (Zea mays), crabgrass, large (large crabgrass, Digitaria sanguinalis), foxtail, giant (giant foxtail, Setaria faberii), johnsongrass (Sorghum halepense), lambsquarters (Chenopodium album), morningglory (Ipomoea coccinea), nutsedge, yellow (yellow nutsedge, Cyperus esculentus), pigweed (redroot pigweed, Amaranthus retroflexus), ragweed (common ragweed, Ambrosia elation), soybean (Glycine max), barnyardgrass (Echinochloa crus-galli), oilseed rape (Brassica napus), waterhemp (common waterhemp, Amaranthus rudis), oat, wild (wild oat, Avena fatua), kochia (Kochia scoparia), Surinam grass (Brachiaria decumbens), foxtail, green (green foxtail, Setaria viridis), goosegrass (Eleusine indica), bromegrass, downy (downy bromegrass, Bromus tectorum), nightshade (eastern black nightshade, Solanum ptycanthum), cocklebur (common cocklebur, Xanthium strumarium), cupgrass, woolly (woolly cupgrass, Eriochloa villosa), bermudagrass (Cynodon dactylon), sunflower, (common oilseed sunflower, Helianthus annuus), Russian thistle (Salsola kali), and velvetleaf (Abutilon theophrasti) were planted into a blend of loam soil and sand and treated preemergence with test chemicals formulated in a non-phytotoxic solvent mixture which included a surfactant.
(§4) At the same time, plants selected from these crop and weed species and also chickweed (common chickweed, Stellaria media), canarygrass (littleseed canarygrass, Phalaris minor), and deadnettle (henbit deadnettle, Lamium amplexicaule), were planted in pots containing Redi-Earth® planting medium (Scotts Company, 14111 Scottslawn Road, Marysville, Ohio 43041) comprising spaghnum peat moss, vermiculite, wetting agent and starter nutrients and treated with postemergence applications of test chemicals formulated in the same manner. Plants ranged in height from 2 to 18 cm (1- to 4-leaf stage) for postemergence treatments. Treated plants and controls were maintained in a greenhouse for 13 to 15 days, after which time all species were compared to controls and visually evaluated. Plant response ratings, summarized in Table C, are based on a scale of 0 to 100 where 0 is no effect and 100 is complete control. A dash (-) response means no test result.

bermudagrass = assay: Test C postemergence; type: in vivo, Cynodon dactylon; details: for Bermudagrass plant response rating: scale 0 to 100
Text: as §3, §4

oat, wild = assay: Test C preemergence; type: in vivo, Avena fatua; details: for Plant response rating (scale of 0 to 100), Oat, Wild: Preemergence, 250 g ai/ha; for Oat, Wild plant response rating / Plant response rating, Oat, Wild: preemergence; for Plant response rating, Oat, Wild: 62 g ai/ha, scale 0 to 100, 0 = no effect, 100 = complete control
Text: as §3, §4

goosegrass = assay: Test C preemergence; type: in vivo, Eleusine indica; details: for Plant response rating (scale of 0 to 100), Goosegrass: Preemergence, 250 g ai/ha; for Goosegrass plant response rating / Plant response rating, Goosegrass: preemergence; for Plant response rating, Goosegrass: 62 g ai/ha, scale 0 to 100, 0 = no effect, 100 = complete control
Text: as §3, §4

cupgrass, woolly = assay: Test C preemergence; type: in vivo, Eriochloa villosa; details: for Plant response rating (scale of 0 to 100), Cupgrass, Woolly: Preemergence, 250 g ai/ha; for Cupgrass, Woolly plant response rating / Plant response rating, Cupgrass, Woolly: preemergence; for Plant response rating, Cupgrass, Woolly: 62 g ai/ha, scale 0 to 100, 0 = no effect, 100 = complete control
Text: as §3, §4

[1] = Preemergence, 31 g ai/ha, scale 0 to 100
[2] = Preemergence, 62 g ai/ha, scale 0 to 100
[3] = Preemergence, 125 g ai/ha, scale 0 to 100
[4] = preemergence, 8 g ai/ha, scale 0 to 100, 100 is complete control
[5] = preemergence, 16 g ai/ha, scale 0 to 100, 100 is complete control
[6] = Postemergence, 500 g ai/ha, 0 to 100 scale (0 no effect, 100 complete control)
[7] = postemergence, 125 g ai/ha, about 10 days, visual rating on 0 to 100 scale (0 no effect, 100 complete control)
[8] = Preemergence, 250 g ai/ha, scale 0 to 100
[9] = postemergence, 250 g ai/ha, scale 0 to 100 (0 no effect, 100 complete control)
[10] = postemergence, 62 g ai/ha, scale 0 to 100, 0 no effect, 100 complete control
[11] = postemergence, 125 g ai/ha, scale 0 to 100, 0 no effect, 100 complete control
[12] = 31 g ai/ha, scale 0 to 100 (0 no effect, 100 complete control), 13 to 15 days
[13] = 125 g ai/ha, scale 0 to 100, 0 is no effect, 100 is complete control

SMILES: CCc1cc(-c2ccc(C(F)(F)F)cc2)nn1Cc1ccnc(C(F)(F)F)c1 [Compound 110]
- Plant response rating, Yellow Nutsedge (yellow nutsedge; [1]): 0
- Plant response rating, Yellow Nutsedge (yellow nutsedge; [2]): 0
- Plant response rating, Yellow Nutsedge (yellow nutsedge; [3]): 0
- Plant response rating, Yellow Nutsedge (yellow nutsedge; [4]): 0
- Plant response rating, Yellow Nutsedge (yellow nutsedge; [5]): 0
- Plant response rating, Wild Poinsettia (wild poinsettia; [1]): 35
- Plant response rating, Wild Poinsettia (wild poinsettia; [2]): 50
- Plant response rating, Wild Poinsettia (wild poinsettia; [3]): 80
- Plant response rating, Wild Poinsettia (wild poinsettia; [4]): 25
- Plant response rating, Wild Poinsettia (wild poinsettia; [5]): 25
- Plant response rating, Common Ragweed (common ragweed; [1]): 25
- Plant response rating, Common Ragweed (common ragweed; [2]): 80
- Plant response rating, Common Ragweed (common ragweed; [3]): 90
- Plant response rating, Common Ragweed (common ragweed; [4]): 0
- Plant response rating, Common Ragweed (common ragweed; [5]): 0

SMILES: CCc1cc(C(=O)NOC(C)C)nn1Cc1ccnc(OC(F)F)c1 [Compound 126]
- Blackgrass plant response rating (blackgrass; [6]): 90
- Blackgrass plant response rating (blackgrass; [7]): 90

SMILES: CCc1cc(C(=O)NCC(F)(F)F)nn1Cc1ccnc(Br)c1 [Compound 224]
- Plant response rating, Yellow Nutsedge (yellow nutsedge; [2]): 0
- Plant response rating, Yellow Nutsedge (yellow nutsedge; [3]): 35
- Plant response rating, Yellow Nutsedge (yellow nutsedge; [8]): 35
- Plant response rating, Wild Poinsettia (wild poinsettia; [2]): 60
- Plant response rating, Wild Poinsettia (wild poinsettia; [3]): 65
- Plant response rating, Wild Poinsettia (wild poinsettia; [8]): 85
- Plant response rating, Common Ragweed (common ragweed; [2]): 0
- Plant response rating, Common Ragweed (common ragweed; [3]): 0
- Plant response rating, Common Ragweed (common ragweed; [8]): 60

SMILES: CCCc1cc(C(=O)NC2CC2)nn1Cc1ccnc(OC(F)F)c1 [Compound 205]
- Blackgrass plant response rating (blackgrass; [6]): 90
- Blackgrass plant response rating (blackgrass; [7]): 70

SMILES: CCCc1cc(C(=O)NCC(F)(F)F)nn1Cc1ccnc(OC(F)F)c1 [Compound 127]
- Blackgrass plant response rating (blackgrass; [6]): 90
- Blackgrass plant response rating (blackgrass; [7]): 90

SMILES: CCOc1cc(C(=O)NCC(F)(F)F)nn1Cc1ccnc(OC(F)F)c1 [Compound 128]
- Blackgrass plant response rating (blackgrass; [6]): 100
- Blackgrass plant response rating (blackgrass; [7]): 90

SMILES: CCCc1cc(C(=O)NC(C)C)nn1Cc1cc(C(F)(F)F)nn1C [Compound 201]
- Plant response rating, Yellow Nutsedge (yellow nutsedge; [2]): 0
- Plant response rating, Yellow Nutsedge (yellow nutsedge; [3]): 0
- Plant response rating, Yellow Nutsedge (yellow nutsedge; [8]): 25
- Plant response rating, Yellow Nutsedge (yellow nutsedge; [5]): 0
- Plant response rating, Wild Poinsettia (wild poinsettia; [2]): 5
- Plant response rating, Wild Poinsettia (wild poinsettia; [3]): 25
- Plant response rating, Wild Poinsettia (wild poinsettia; [8]): 65
- Plant response rating, Wild Poinsettia (wild poinsettia; [5]): 0
- Plant response rating, Common Ragweed (common ragweed; Preemergence, 16 g ai/ha, scale 0 to 100): 0
- Plant response rating, Common Ragweed (common ragweed; [2]): 0
- Plant response rating, Common Ragweed (common ragweed; [3]): 35
- Plant response rating, Common Ragweed (common ragweed; [8]): 65
- Plant response rating, Common Ragweed (common ragweed; [5]): 0

SMILES: CCc1cc(C(=O)NCC(F)(F)F)nn1Cc1cccc(OC(F)(F)F)c1 [Compound 20]
- Bromegrass, Downy plant response rating (bromegrass, downy; Postemergence, 31 g ai/ha): 0
- Plant response rating, Bromegrass, Downy (bromegrass, downy; [9]): 10
- Plant response rating, Bromegrass, Downy (bromegrass, downy; [10]): 0
- Plant response rating, Bromegrass, Downy (bromegrass, downy; [11]): 5
- Bermudagrass plant response rating (bermudagrass; Postemergence, 31 g ai/ha): 5
- Plant response rating, Bermudagrass (bermudagrass; [9]): 45
- Plant response rating, Bermudagrass (bermudagrass; [10]): 5
- Plant response rating, Bermudagrass (bermudagrass; [11]): 15

SMILES: CCc1cc(C(=O)NOC(C)C)nn1Cc1cccc(OC(F)(F)F)c1 [Compound 70]
- Plant response rating (scale of 0 to 100), Oat, Wild (oat, wild): 65
- Oat, Wild plant response rating (oat, wild; [12]): 5
- Plant response rating, Oat, Wild (oat, wild; 13 to 15 days): 10
- Oat, Wild plant response rating (oat, wild; [13]): 50
- Plant response rating (scale of 0 to 100), Goosegrass (goosegrass): 98
- Goosegrass plant response rating (goosegrass; [12]): 60
- Plant response rating, Goosegrass (goosegrass; 13 to 15 days): 80
- Goosegrass plant response rating (goosegrass; [13]): 95
- Bromegrass, Downy plant response rating (bromegrass, downy; Postemergence, 31 g ai/ha): 0
- Plant response rating, Bromegrass, Downy (bromegrass, downy; [9]): 5
- Plant response rating, Bromegrass, Downy (bromegrass, downy; [10]): 0
- Plant response rating, Bromegrass, Downy (bromegrass, downy; [11]): 5
- Bermudagrass plant response rating (bermudagrass; Postemergence, 31 g ai/ha): 5
- Plant response rating, Bermudagrass (bermudagrass; [9]): 10
- Plant response rating, Bermudagrass (bermudagrass; [10]): 5
- Plant response rating, Bermudagrass (bermudagrass; [11]): 10
- Plant response rating (scale of 0 to 100), Cupgrass, Woolly (cupgrass, woolly): 90
- Cupgrass, Woolly plant response rating (cupgrass, woolly; [12]): 40
- Plant response rating, Cupgrass, Woolly (cupgrass, woolly; 13 to 15 days): 65
- Cupgrass, Woolly plant response rating (cupgrass, woolly; [13]): 85

SMILES: CCCNC(=O)c1cc(CC)n(Cc2cccc(OC(F)(F)F)c2)n1 [Compound 27]
- Bromegrass, Downy plant response rating (bromegrass, downy; Postemergence, 31 g ai/ha): 0
- Plant response rating, Bromegrass, Downy (bromegrass, downy; [9]): 10
- Plant response rating, Bromegrass, Downy (bromegrass, downy; [10]): 5
- Plant response rating, Bromegrass, Downy (bromegrass, downy; [11]): 5
- Bermudagrass plant response rating (bermudagrass; Postemergence, 31 g ai/ha): 0
- Plant response rating, Bermudagrass (bermudagrass; [9]): 25
- Plant response rating, Bermudagrass (bermudagrass; [10]): 5
- Plant response rating, Bermudagrass (bermudagrass; [11]): 5

SMILES: CCCNC(=O)c1cc(OCC)n(Cc2ccnc(OC(F)F)c2)n1 [Compound 136]
- Blackgrass plant response rating (blackgrass; [6]): 100
- Blackgrass plant response rating (blackgrass; [7]): 80

SMILES: CCONC(=O)c1cc(CC)n(Cc2cccc(OC(F)(F)F)c2)n1 [Compound 72]
- Plant response rating (scale of 0 to 100), Oat, Wild (oat, wild): 85
- Oat, Wild plant response rating (oat, wild; [12]): 30
- Plant response rating, Oat, Wild (oat, wild; 13 to 15 days): 60
- Oat, Wild plant response rating (oat, wild; [13]): 80
- Plant response rating (scale of 0 to 100), Goosegrass (goosegrass): 98
- Goosegrass plant response rating (goosegrass; [12]): 75
- Plant response rating, Goosegrass (goosegrass; 13 to 15 days): 98
- Goosegrass plant response rating (goosegrass; [13]): 98
- Bromegrass, Downy plant response rating (bromegrass, downy; Postemergence, 31 g ai/ha): 5
- Bromegrass, Downy plant response rating (bromegrass, downy; postemergence, 62 g ai/ha): 5
- Plant response rating, Bromegrass, Downy (bromegrass, downy; [9]): 15
- Plant response rating, Bromegrass, Downy (bromegrass, downy; [11]): 15
- Bermudagrass plant response rating (bermudagrass; Postemergence, 31 g ai/ha): 0
- Bermudagrass plant response rating (bermudagrass; postemergence, 62 g ai/ha): 0
- Plant response rating, Bermudagrass (bermudagrass; [9]): 20
- Plant response rating, Bermudagrass (bermudagrass; [11]): 15
- Plant response rating (scale of 0 to 100), Cupgrass, Woolly (cupgrass, woolly): 65
- Cupgrass, Woolly plant response rating (cupgrass, woolly; [12]): 10
- Plant response rating, Cupgrass, Woolly (cupgrass, woolly; 13 to 15 days): 45
- Cupgrass, Woolly plant response rating (cupgrass, woolly; [13]): 45
